Test results taken from US6346514B1, “Pharmaceutical lysine-containing polypeptide compositions and methods of use thereof” (priority 1991, dated 2002).

Tests used:
B-lymphocytes = assay: Ig-receptor expression on B-lymphocytes of patients with secondary immunodeficiency; assay type: cell-based, human; settings: concentration 1 microg/ml
Protocol: The number of cells carrying Ig-receptors before and after incubation with the peptide has been measured (by means for FITC-labelled sera against human Ig).

trypsinized thymocytes = assay: Restoration of rosette-forming capacity (E-RFC) of trypsinized thymocytes; assay type: cell-based, guinea-pig; settings: concentration 10 microg/ml (most active of 1, 10, 100)
Protocol: Model: A. This work was designed to study the restoration of superficial receptors on lymphocytes after proteolytic digestion or after severe secondary immunodeficiency. Thymocytes obtained from guinea-pig were trypsinized and then their rosette-forming capacity with rabbit erythrocytes (E-RFC) was evaluated. The cells were incubated with the peptide in concentrations 1, 10 and 100 microg/ml. There were two controls—intact thymocytes (not trypsinized) and trypsinized thymocytes not incubated with the peptide.

[1] = system: hemolytic anemia induced by phenylhydrazine hydrochloride; assay: Erythropoietic effect in hemolytic phenylhydrazine-induced anemia; assay type: in vivo, mice; settings: 3rd day of administration
Protocol: This test was designed to study posthemorrhagic anemia (acute blood loss caused by taking blood from retroorbital sinus), and hemolytic anemia induced by phenylhydrazine hydrochloride (120 mg active ingredients/kg 30 Balb/c-mice and 30 CBA-mice). HM897 was injected intraperitoneally in doses of 100 and 150 microg per kg, 3 hours and 1 day after intervention modelling anemia, for 5 days. Tester parameters: RBC, leukocytes, reticulocytes, Hb, Hct

[2] = system: methicillin-resistant S. aureus; assay: Survival of mice inoculated with 10xLD50 S. aureus, HM897 pretreatment with or without Ampicillin; assay type: in vivo
Protocol: As in Example 8, animals were inoculated intraperitoneally with 10×LD50 of a methicillin-resistant S. aureus suspended in brain-heart infusion broth containing 5 percent mucin. Different treatments were administered s.c., i.p., or p.o., one hour later and deaths occurring during the subsequent three days were recorded. If significant prevention of mortality (>50 percent survival) was observed, the minimum effective dose (MED) was determined.
Two control experiments were conducted. HM897 was administered as a pretreatment prior to microbial inoculation, and saline was administered i.p. The number of survivors at 72 hours was determined. […] The number of survivors at 72 hours was recorded.
Survival statistics were determined over the periods of 12, 24, 36, 48, and 72 hours. […] Survival statistics were determined over periods of 12, […], 36, 48, and 72 hours. The method of conducting the experiment is illustrated in FIG. 5.

[3] = 12 HOURS after inoculation, HM897 10 mcg/kg
[4] = 12 HOURS after inoculation, HM897 100 mcg/kg
[5] = 12 HOURS after inoculation, HM897 1000 mcg/kg
[6] = 24 HOURS after inoculation, HM897 10 mcg/kg
[7] = 24 HOURS after inoculation, HM897 100 mcg/kg
[8] = 24 HOURS after inoculation, HM897 1000 mcg/kg
[9] = 36 HOURS after inoculation, HM897 10 mcg/kg
[10] = 36 HOURS after inoculation, HM897 100 mcg/kg
[11] = 36 HOURS after inoculation, HM897 1000 mcg/kg
[12] = 48 HOURS after inoculation, HM897 10 mcg/kg
[13] = 48 HOURS after inoculation, HM897 100 mcg/kg
[14] = 48 HOURS after inoculation, HM897 1000 mcg/kg
[15] = 72 HOURS after inoculation, HM897 10 mcg/kg
[16] = 72 HOURS after inoculation, HM897 100 mcg/kg
[17] = 72 HOURS after inoculation, HM897 1000 mcg/kg

With Thr-Ala-Glu-Glu-Lys (TAEEK) [HM897] the “cells carrying Ig-receptors of different types” value (B-lymphocytes) was “significant increase”, the “biological activity (percentage of rosette-forming capacity restoration)” value (trypsinized thymocytes) was 78/9 and the erythrocytes [1] was 7.2 mln/ml. For the same substance, the Deaths [2, 3] was 0, the Survival [2, 3] was 100.00% and the Survivors [2, 3] was 18. For the same substance, the Deaths [2, 4] was 0, the Survival [2, 4] was 100.00% and the Survivors [2, 4] was 18. The Deaths [2, 5] was 1, the Survival [2, 5] was 94.44% and the Survivors [2, 5] was 17. The Deaths [2, 6] was 5, the Survival [2, 6] was 72.22% and the Survivors [2, 6] was 13. For the same substance, the Deaths [2, 7] was 3, the Survival [2, 7] was 83.33% and the Survivors [2, 7] was 15. The Deaths [2, 8] was 2, the Survival [2, 8] was 88.89% and the Survivors [2, 8] was 16. For the same substance, the Deaths [2, 9] was 12, the Survival [2, 9] was 33.33% and the Survivors [2, 9] was 6. The Deaths [2, 10] was 8, the Survival [2, 10] was 55.56% and the Survivors [2, 10] was 10. For the same substance, the Deaths [2, 11] was 7, the Survival [2, 11] was 61.11% and the Survivors [2, 11] was 11. For the same substance, the Deaths [2, 12] was 14, the Survival [2, 12] was 22.22% and the Survivors [2, 12] was 4. It also gave a Deaths [2, 13] of 12, a Survival [2, 13] of 33.33% and a Survivors [2, 13] of 6. The Deaths [2, 14] was 11, the Survival [2, 14] was 38.89% and the Survivors [2, 14] was 7. It also gave a Deaths [2, 15] of 14, a Survival [2, 15] of 22.22% and a Survivors [2, 15] of 4. It also gave a Deaths [2, 16] of 12, a Survival [2, 16] of 33.33% and a Survivors [2, 16] of 6. It also gave a Deaths [2, 17] of 11, a Survival [2, 17] of 38.89% and a Survivors [2, 17] of 7. For the same substance, the “survival after normally lethal i.p. dose of S. aureus” value ([2]; HM897 pretreatment) was “dramatic improvement in survival”, the “Survival” value ([2]; at 36 hours, across HM897 dose groups) was at most 61% and the “Survival” value ([2]; by 72 hours, across HM897 dose groups) was 22-39%.
